This passage reports EC50 results from patent US9562033B2, “Inhibitors of viral replication, their process of preparation and their therapeutical uses” (LABORATOIRE BIODIM, priority 2012, dated 2017).

This experiment has as its system NL4-3 strain of HIV-1. Nature of the experiment: HIV-1 replication inhibition: cyto-protection of MT4 cells infected with NL4-3 virus (CellTiter-Glo viability assay). As to conditions: Human immunodeficiency virus 1, NL43, 120 h, concentration leading to 50% of cyto-protection, 5 days incubation. In kind it is cell-based. As for the experimental part:
The antiviral activity, particularly against HIV, of compounds according to the invention is evaluated by the protocol described below.
Preparation of Virus Stock of the NL4-3 Strain of HIV-1
The virus was prepared as described in Lopez et al (Lopez et al, Proc Natl Acad Sci USA., 2006, 103(40):14947-52, by transfecting 2×10^6 293 T cells (CRL-1573, ATCC) with following modifications: 6 μg of NL4-3 proviral DNA molecular clone were mixed with Fugene 6 transfection reagent from Roche, and used according to manufacturer's instructions. Forty eight hours later, transfected cell supernatants were harvested, filtered through 0.45-μm-pore-size filters, quantified for HIV-1 p24 antigen by using a Innotest HIV antigen mAb assay (Ingen) according to manufacturer's instructions, and used in infection experiments.
Preparation of Compounds:
Serial dilutions of compounds to be tested were prepared in complete RPMI medium from 10 mM DMSO stock solutions, and distributed in a volume of 20 µl in 96 well Falcon 353072 Microtest™ tissue culture plate, in order to get 0.5% DMSO final concentration in each well, after the addition of infected cells. Control wells contained also 0.5% DMSO final concentration but no compound.
MT4 cells (from the NIH AIDS Research and Reference Reagent Program) in RPMI complete medium were counted (10×10^6 cells per well in Falcon 353047 Multiwell™ 24 well) and infected for 2 hours at 37°, at a multiplicity of infection (moi) of 0.0001-0.00001. Cells were then centrifuged 3 min at 3000 rpm, and washed two times in 1 ml PBS to remove viruses that have not entered in cells. Infected cells were resuspended in complete RPMI at 1.25×10^6 cells/ml, and 80 µl of infected cells were distributed in each well containing compounds to be tested or control wells. The plates were then incubated at 37° for 5 days.
Assay Used to Measure the Inhibition of HIV Replication by the Compounds
(according to Gregg S. Jones et al., Antimicrobial Agents and Chemotherapy, 2009, 53 (3): 1194-1203).
After 5 days of incubation, […] of CellTiter-Glo reagent (Promega Biosciences, Inc., Madison Wis., USA) were added to each well. Cell lysis was carried out at room temperature during 10 min, 150 μl of lysates were transferred in Packard Optiplate 96 well, and luminescence was read on a Fluoroskan (Thermo Scientific).

For `Cc1sc(-c2cnn(C)c2)c(C2=CCC(C(C)C)CC2)c1C(OC(C)(C)C)C(=O)O` (stereo not shown) [Example 26, 2-(tert-butoxy)-2-{2-methyl-4-[4-(propan-2-yl)cyclohex-1-en-1-yl]-5-(N-methylpyrazol-4-yl)thiophen-3-yl}acetic acid], the concentration for a half-maximal effect (EC50) came out at 830 nM. For `Cc1sc(-c2ccc(C(N)=O)cc2)c(C2=CCC(C)(C)CC2)c1C(OC(C)(C)C)C(=O)O` (stereo not shown) [Example 27, 2-(tert-butoxy)-2-[5-(4-carbamoylphenyl)-4-(4,4-dimethylcyclohex-1-en-1-yl)-2-methylthiophen-3-yl]acetic acid], the EC50 was 90 nM. This EC50 lies about 9.2-fold lower than the previous one. Turning to `Cc1sc(-c2ccncc2)c(C2=CCC(F)(F)CC2)c1C(OC(C)(C)C)C(=O)O` (stereo not shown) [Example 28, 2-(tert-butoxy)-2-[2-methyl-4-(4,4-difluorocyclohex-1-en-1-yl)-5-(pyridin-4-yl)thiophen-3-yl]acetic acid], the EC50 came out at 750 nM. Compound `CNC(=O)c1ccc(-c2sc(C)c(C(OC(C)(C)C)C(=O)O)c2C2=CCC(C)(C)CC2)cc1` (stereo not shown) [Example 29, 2-(tert-butoxy)-2-[4-(4,4-dimethylcyclohex-1-en-1-yl)-2-methyl-5-(N-methyl-4-aminocarbonylphenyl)thiophen-3-yl]acetic acid] yielded a half-maximal effective concentration (EC50) of 90 nM. The figure for `Cc1sc(-c2ccc(=O)n(C)c2)c(C2=CCC(C)(C)CC2)c1C(OC(C)(C)C)C(=O)O` (stereo not shown) [Example 30] is 70 nM. The figure for `Cc1sc(-c2cccc(C(N)=O)c2)c(C2=CCC(C)(C)CC2)c1C(OC(C)(C)C)C(=O)O` (stereo not shown) [Example 31, 2-(tert-butoxy)-2-[4-(4,4-dimethylcyclohex-1-en-1-yl)-2-methyl-5-(aminocarbonylphen-3-yl)thiophen-3-yl]acetic acid] is 40 nM; for `Cc1sc(-c2ccc(S(N)(=O)=O)cc2)c(C2=CCC(C)(C)CC2)c1C(OC(C)(C)C)C(=O)O` (stereo not shown) [Example 32, 2-(tert-butoxy)-2-[4-(4,4-dimethylcyclohex-1-en-1-yl)-2-methyl-5-(benzenesulfonamide-4-yl)thiophen-3-yl]acetic acid] it is 430 nM; for `CC(=O)Nc1ccc(-c2sc(C)c(C(OC(C)(C)C)C(=O)O)c2C2=CCC(C)(C)CC2)cc1` (stereo not shown) [Example 33, 2-(tert-butoxy)-2-[4-(4,4-dimethylcyclohex-1-en-1-yl)-2-methyl-5-(acetamidophen-4-yl)thiophen-3-yl]acetic acid] it is 230 nM. Compound `Cc1sc(-c2ccc(=O)n(Cc3ccccc3)c2)c(C2=CCC(C)(C)CC2)c1C(OC(C)(C)C)C(=O)O` (stereo not shown) [Example 34] displayed an EC50 of 750 nM. As to `CCCn1cc(-c2sc(C)c(C(OC(C)(C)C)C(=O)O)c2C2=CCC(C)(C)CC2)ccc1=O` (stereo not shown) [Example 35], the EC50 was found to be 340 nM. In the case of `CCCNC(=O)c1ccc(-c2sc(C)c(C(OC(C)(C)C)C(=O)O)c2C2=CCC(C)(C)CC2)cc1` (stereo not shown) [Example 36, 2-(tert-butoxy)-2-[4-(4,4-dimethylcyclohex-1-en-1-yl)-2-methyl-5-[4-(propylcarbamoyl)phenyl]thiophen-3-yl]acetic acid] it was 100 nM; in that of `Cc1sc(-c2ccc(=O)n(CC3CC3)c2)c(C2=CCC(C)(C)CC2)c1C(OC(C)(C)C)C(=O)O` (stereo not shown) [Example 37], 320 nM; in that of `CC(C)(C)OC(C(=O)O)c1c(CO)sc(-c2ccncc2)c1-c1ccc2c(c1)CCCO2` (stereo not shown) [Example 38, 2-(tert-butoxy)-2-[4-(3,4-dihydro-2H-1-benzopyran-6-yl)-2-(hydroxymethyl)-5-(pyridin-4-yl)thiophen-3-yl]acetic acid], 2300 nM. In the case of `Cc1sc(-c2ccncc2)c(-c2cc(F)c3c(c2C)CCCO3)c1C(OC(C)(C)C)C(=O)O` (stereo not shown) [Example 39, 2-(tert-butoxy)-2-[4-(8-fluoro-5-methyl-3,4-dihydro-2H-1-benzopyran-6-yl)-2-methyl-5-(pyridin-4-yl)thiophen-3-yl]acetic acid] it was 730 nM; in that of `Cc1sc(-c2ccncc2)c(-c2cc(F)c3c(c2)CCCO3)c1C(OC(C)(C)C)C(=O)O` (stereo not shown) [Example 40, 2-(tert-butoxy)-2-[4-(8-fluoro-3,4-dihydro-2H-1-benzopyran-6-yl)-2-methyl-5-(pyridin-4-yl)thiophen-3-yl]acetic acid], 360 nM; in that of `CNC(=O)c1cccc(-c2sc(C)c(C(OC(C)(C)C)C(=O)O)c2C2=CCC(C)(C)CC2)c1` (stereo not shown) [Example 41, 2-(tert-butoxy)-2-[4-(4,4-dimethylcyclohex-1-en-1-yl)-2-methyl-5-(methylaminocarbonylphen-3-yl)thiophen-3-yl]acetic acid], 50 nM.

Compound `CCCNC(=O)c1cccc(-c2sc(C)c(C(OC(C)(C)C)C(=O)O)c2C2=CCC(C)(C)CC2)c1` (stereo not shown) [Example 42, 2-(tert-butoxy)-2-[4-(4,4-dimethylcyclohex-1-en-1-yl)-2-methyl-5-[3-(propylcarbamoyl)phenyl]thiophen-3-yl]acetic acid] gave an EC50 of 40 nM.

In turn, `Cc1sc(-c2ccccn2)c(C2=CCC(C)(C)CC2)c1C(OC(C)(C)C)C(=O)O` (stereo not shown) [Example 43, 2-(tert-butoxy)-2-[4-(4,4-dimethylcyclohex-1-en-1-yl)-2-methyl-5-(pyridin-2-yl)thiophen-3-yl]acetic acid] came in with an EC50 of 440 nM.

As for `Cc1sc(-c2ccccc2)c(C2=CCC(C)(C)CC2)c1C(OC(C)(C)C)C(=O)O` (stereo not shown) [Example 44, 2-(tert-butoxy)-2-[4-(4,4-dimethylcyclohex-1-en-1-yl)-2-methyl-5-phenylthiophen-3-yl]acetic acid], the midpoint of the response, the EC50, lay at 230 nM.

For `Cc1sc(-c2nccs2)c(C2=CCC(C)(C)CC2)c1C(OC(C)(C)C)C(=O)O` (stereo not shown) [Example 45, 2-(tert-butoxy)-2-[4-(4,4-dimethylcyclohex-1-en-1-yl)-2-methyl-5-(1,3-thiazol-2-yl)thiophen-3-yl]acetic acid], the EC50 came out at 440 nM.

For `Cc1ccc(-c2sc(C)c(C(OC(C)(C)C)C(=O)O)c2C2=CCC(C)(C)CC2)nc1` (stereo not shown) [Example 46, 2-(tert-butoxy)-2-[4-(4,4-dimethylcyclohex-1-en-1-yl)-2-methyl-5-(5-methylpyridin-2-yl)thiophen-3-yl]acetic acid], a half-maximal effect (EC50) was put at 450 nM. The figure for `Cc1cccnc1-c1sc(C)c(C(OC(C)(C)C)C(=O)O)c1C1=CCC(C)(C)CC1` (stereo not shown) [Example 47, 2-(tert-butoxy)-2-[4-(4,4-dimethylcyclohex-1-en-1-yl)-2-methyl-5-(3-methylpyridin-2-yl)thiophen-3-yl]acetic acid] is 510 nM; for `Cc1sc(-c2ccncc2)c(C2=CCC(CF)(CF)CC2)c1C(OC(C)(C)C)C(=O)O` (stereo not shown) [Example 48, [4-(4,4-bis-fluoromethyl-cyclohex-1-enyl)-2-methyl-5-pyridin-4-yl-thiophen-3-yl]-tert-butoxy-acetic acid] it is 130 nM. Take `Cc1sc(-c2ncccn2)c(C2=CCC(C)(C)CC2)c1C(OC(C)(C)C)C(=O)O` (stereo not shown) [Example 49, 2-(tert-butoxy)-2-{2-methyl-4-[4,4-dimethylcyclohex-1-en-1-yl]-5-(Pyrimidin-2-yl)thiophen-3-yl}acetic acid]: the EC50 amounted to 990 nM. In the case of `Cc1sc(-n2cccn2)c(C2=CCC(C)(C)CC2)c1C(OC(C)(C)C)C(=O)O` (stereo not shown) [Example 50, 2-(tert-butoxy)-2-[4-(4,4-dimethylcyclohex-1-en-1-yl)-2-methyl-5-(1H-pyrazol-1-yl)thiophen-3-yl]acetic acid], the response was half-maximal at 770 nM (EC50).
